This assay relates to IgE antibodies from patients. The experiment in a line: Wheat epitope mapping (2): overlapping 10-amino-acid peptide fragments shifted by one amino acid.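 Also: key = sequence deemed particularly important within the common 15-residue sequence.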 It is filed as binding, human. The following applies: sequence without X. In outline:
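Residual binding was banded as <30% none, 30–<50% poor, 50–<70% somewhat poor and ≥70% retained, relative to the parent overlapping sequence set to 100%. Values were chemiluminescent IgE signals from patient sera after subtracting secondary-antibody-only controls. The peptides were spot-synthesised 10-mers shifted by one amino acid.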

[1] abbreviates: serum of patient P50 (child, general immediate type allergy to wheat).
Setting [2] is: serum of patient P51 (child, general immediate type allergy to wheat).
The mark [3] stands for this setting: serum of patient P53 (child, general immediate type allergy to wheat).
The mark [4] stands for this setting: serum of patient G1 (adult, general immediate type allergy to wheat).
The mark [5] stands for this setting: serum of patient G2 (adult, general immediate type allergy to wheat).
The mark [6] stands for this setting: serum of patient G3 (adult, general immediate type allergy to wheat).
The mark [7] stands for this setting: serum of patient G4 (adult, general immediate type allergy to wheat).
Setting [8] is: serum of patient G5 (adult, general immediate type allergy to wheat).
[9] abbreviates: serum of patient G6 (adult, general immediate type allergy to wheat).
Where [10] appears, read: serum of patient G9 (adult, general immediate type allergy to wheat).

As for “1617 (VPFVPISG; REGION 1..8: note = epitope) [compound 1617]”, where the note is “serum of patient P20 (WDEIA)”, the “Rank of partial sequence as epitope binding to IgE antibody” value (“Rank of partial sequence” below) is listed as “Preferably”.
Same read-out and setting: for “1618 (FVPISG; REGION 1..6: note = epitope) [compound 1618]” the value was “Key”.
For the substance “1619 (FVPISG; REGION 1..6: note = epitope) [compound 1619]”, the “Rank of partial sequence” value (serum of patient P21 (WDEIA)) is recorded as “Key”.
For the substance “1620 (YNPDKV; REGION 1..6: note = epitope) [compound 1620]”, under “serum of patient P24 (WDEIA)”, the “Rank of partial sequence” value is given as “Preferably”.
On the same count and under the same terms, for “1621 (YNPD; REGION 1..4: note = epitope) [compound 1621]” the value was “Key”.
Take “1623 (YNPD; REGION 1..4: note = epitope) [compound 1623]”: under “serum of patient P25 (WDEIA)”, the “Rank of partial sequence” value is given as “Key”.
Same read-out and setting: as for “1624 (FVPISG; REGION 1..6: note = epitope) [compound 1624]”, the entry is “Key”.
As to “1626 (YNPD; REGION 1..4: note = epitope) [compound 1626]”, the “Rank of partial sequence” value (serum of patient P26 (WDEIA)) is given as “Key”.
Regarding “1628 (YNPDKVP; REGION 1..7: note = epitope) [compound 1628]”, the “Rank of partial sequence” value (serum of patient P27 (WDEIA)) was “Preferably”.
Still for that read-out and setting: as for “1629 (YNPD; REGION 1..4: note = epitope) [compound 1629]”, the entry is “Key”.
The same measure, in the same setting: as for “1630 (PDKVPFVPIS; REGION 1..10: note = epitope) [compound 1630]”, the entry is “Key”.
For the substance “1631 (DKVPFVPISG; REGION 1..10: note = epitope) [compound 1631]”, for the setting “serum of patient P28 (WDEIA)”, the “Rank of partial sequence” value is given as “Key”.
Consider “1632 (YNPD; REGION 1..4: note = epitope) [compound 1632]”, for which the “Rank of partial sequence” value (serum of patient P29 (WDEIA)) is “Key”.
As to “1633 (YNPD; REGION 1..4: note = epitope) [compound 1633]”, where the note is “serum of patient P31 (WDEIA)”, the “Rank of partial sequence” value is reported as “Key”.
Take “1634 (YNPDKVPF; REGION 1..8: note = epitope) [compound 1634]”: the “Rank of partial sequence” value (serum of patient P32 (WDEIA)) is listed as “Preferably”.
Still for that read-out and setting: for “1635 (YNPD; REGION 1..4: note = epitope) [compound 1635]” the value was “Key”.
On to “1637 (YNPDKVPF; REGION 1..8: note = epitope) [compound 1637]”, for which, under “serum of patient P33 (WDEIA)”, the “Rank of partial sequence” value is recorded as “Key”.
Regarding “1639 (YNPDKV; REGION 1..6: note = epitope) [compound 1639]”, the “Rank of partial sequence” value (serum of patient P34 (WDEIA)) is “Key”.
For “1640 (DKVPFVPISG; REGION 1..10: note = epitope) [compound 1640]”, the “Rank of partial sequence” value (serum of patient P34 (WDEIA)) is “Key”.
Turning to “1641 (YNPDKVP; REGION 1..7: note = epitope) [compound 1641]”, the “Rank of partial sequence” value (serum of patient P35 (WDEIA)) is “Preferably”.
The same measure, in the same setting: for “1642 (YNPD; REGION 1..4: note = epitope) [compound 1642]” the value was “Key”.
Same read-out and setting: for “1643 (PDKVPFVPIS; REGION 1..10: note = epitope) [compound 1643]” the value was “Key”.
On to “1645 (YNPDKVPFV; REGION 1..9: note = epitope) [compound 1645]”, for which the “Rank of partial sequence” value (serum of patient P36 (WDEIA)) is “More preferably”.
Take “1646 (YNPDKVPF; REGION 1..8: note = epitope) [compound 1646]”: the “Rank of partial sequence” value (serum of patient P36 (WDEIA)) was “Preferably”.
On the same count and under the same terms, for “1647 (YNPD; REGION 1..4: note = epitope) [compound 1647]” the value was “Key”; for “1648 (FVPISG; REGION 1..6: note = epitope) [compound 1648]”, “Key”.
With “1650 (YNPDKVPF; REGION 1..8: note = epitope) [compound 1650]”, under setting [1], the “Rank of partial sequence” value is given as “Preferably”.
Same read-out and setting: as for “1651 (NPDKVP; REGION 1..6: note = epitope) [compound 1651]”, the entry is “Key”.
Take “1653 (YNPDKVPFV; REGION 1..9: note = epitope) [compound 1653]”: the “Rank of partial sequence” value under setting [2] is listed as “Preferably”.
“1654 (YNPDKVPF; REGION 1..8: note = epitope) [compound 1654]”: under setting [2], the “Rank of partial sequence” value is listed as “Key”.
The same measure, in the same setting: as for “1655 (FVPISG; REGION 1..6: note = epitope) [compound 1655]”, the entry is “Key”.
With “1656 (NPDKVPFV; REGION 1..8: note = epitope) [compound 1656]”, under setting [3], the “Rank of partial sequence” value is “Key”.
On the same count and under the same terms, for “1657 (VPFVPISG; REGION 1..8: note = epitope) [compound 1657]” the value was “Key”.
In the case of “1658 (KVPFVPISG; REGION 1..9: note = epitope) [compound 1658]”, the “Rank of partial sequence” value (serum of patient P54 (child, general immediate type allergy to wheat)) was “Key”.
Consider “1659 (YNPDKVPF; REGION 1..8: note = epitope) [compound 1659]”, for which the “Rank of partial sequence” value under setting [4] is “Preferably”.
Still for that read-out and setting: for “1660 (YNPDK; REGION 1..5: note = epitope) [compound 1660]” the value was “Key”; for “1661 (FVPISG; REGION 1..6: note = epitope) [compound 1661]”, “Key”.
For “1663 (YNPDKVPFV; REGION 1..9: note = epitope) [compound 1663]”, the “Rank of partial sequence” value under setting [5] is reported as “Preferably”.
Turning to “1664 (YNPDKVPF; REGION 1..8: note = epitope) [compound 1664]”, the “Rank of partial sequence” value under setting [5] was “Key”.
On to “1665 (VPFVPISG; REGION 1..8: note = epitope) [compound 1665]”, for which the “Rank of partial sequence” value under setting [5] was “Key”.
As to “1666 (YNPDKVP; REGION 1..7: note = epitope) [compound 1666]”, the “Rank of partial sequence” value under setting [6] is recorded as “Preferably”.
On the same count and under the same terms, for “1667 (NPDKVP; REGION 1..6: note = epitope) [compound 1667]” the value was “Key”.
The same measure, in the same setting: for “1668 (FVPISG; REGION 1..6: note = epitope) [compound 1668]” the value was “Key”.
For “1669 (GYNPDKVPFV; REGION 1..10: note = epitope) [compound 1669]”, the “Rank of partial sequence” value under setting [7] was “More preferably”.
The same measure, in the same setting: as for “1670 (YNPDKVPFV; REGION 1..9: note = epitope) [compound 1670]”, the entry is “Preferably”; as for “1671 (YNPDKVPF; REGION 1..8: note = epitope) [compound 1671]”, “Key”.
Take “1672 (PDKVPFVPIS; REGION 1..10: note = epitope) [compound 1672]”: under setting [7], the “Rank of partial sequence” value is listed as “Key”.
Turning to “1676 (KVPFVPISG; REGION 1..9: note = epitope) [compound 1676]”, the “Rank of partial sequence” value under setting [8] is “Preferably”.
Still for that read-out and setting: as for “1677 (PFVPISG; REGION 1..7: note = epitope) [compound 1677]”, the entry is “Key”.
Take “1680 (YNPDKVPF; REGION 1..8: note = epitope) [compound 1680]”: the “Rank of partial sequence” value under setting [9] was “More preferably”.
On the same count and under the same terms, for “1681 (DKVPF; REGION 1..5: note = epitope) [compound 1681]” the value was “Preferably”.
Turning to “1683 (YNPDKVPF; REGION 1..8: note = epitope) [compound 1683]”, the “Rank of partial sequence” value under setting [10] is given as “Key”.
On the same count and under the same terms, as for “1684 (FVPISG; REGION 1..6: note = epitope) [compound 1684]”, the entry is “Key”.
As for “1687 (EAANFT; REGION 1..6: note = epitope) [compound 1687]”, the “Rank of partial sequence” value (serum of patient P5 (WDEIA)) is recorded as “Key”.
On to “1688 (KEAA; REGION 1..4: note = epitope) [compound 1688]”, for which the “Rank of partial sequence” value (serum of patient P14 (WDEIA)) was “Key”.
Same read-out and setting: as for “1689 (SQVIIM; REGION 1..6: note = epitope) [compound 1689]”, the entry is “Key”.
“1690 (EAANFT; REGION 1..6: note = epitope) [compound 1690]”: under “serum of patient P16 (WDEIA)”, the “Rank of partial sequence” value was “Key”.

These data come from patent US20240393292A1, “ALLERGY ANTIGEN AND EPITOPE THEREOF” (HOYU CO., LTD., priority 2019, published 2024).
